Test results taken from patent US5352667A, “Non-peptidic surrogates of the Arg-Gly-Asp sequence and pharmaceutical compositions comprising them” (priority 1991, dated 1994).
“Also recorded” adds a separate entry of the source.

Assays:
[1] = system: trypsin; assay: Treatment with trypsin (HPLC monitoring of hydrolysis); type: in vitro ADME; conditions: 0.25% trypsin, 37° C., HPLC at 220 nm, aliquots 5, 30, 60 min
Procedure: Compound SF-6,5 and the GRGDS peptide (50 μg in 100 μl PBS) were incubated at 37° C. and exposed to 0.25% trypsin (Gibco; 50μl in modified Puck's buffer). Aliquots were taken after 5, 30 and 60 min and monitored by HPLC at 220 nm.

[2] = system: CD4^+ T cell adhesion to LN; assay: Inhibition of activated CD4+ T cell adhesion to laminin (LN); type: cell-based, human; conditions: for % inhibition of adhesion of activated CD4^+ T cell to LN / % Adhesion of activated CD4^+ T cell to LN: 0.2 mM peptides and surrogates, mAb anti-CD29 1/200, anti-VLA5 1/400 diluted; for % inhibition of adhesion of activated CD4^+ T cell to LN: * P<0.05; for % Adhesion of activated CD4^+ T cell to LN: none 55 ± 5
Procedure: To examine the adhesive properties of the T cells, 1 μg/50 μl/well of either fibronectin (FN) (Sigma), the 120 kD cell attachment fragment of FN (Telios Pharm. Inc. San Diego, CA), or laminin (LN) (Sigma), were added to 96-flat bottom microtiter-wells for 12 h. Unbound proteins were then washed away and remaining binding sites were blocked with 0.1% bovine serum albumin (BSA) added to the wells for 2 h and washed. CD4+T cells were purified from peripheral blood mononuclear leukocytes obtained from healthy human donors. The mononuclear cells were isolated using a Ficoll gradient, washed and incubated in RPMI supplemented with 10% fetal calf serum (FCS) and antibiotics in petri dishes at 37° C. humidified CO2 incubator. After 2 h, the non-adherent cells were isolated and applied on nylon-wool columns (1.5 h). CD4^+ T cells were then negatively selected by exposure of the cells to a cocktail of anti-CD8, CD19, and CD14 monoclonal antibodies (mAb) conjugated to magnetic-beads (Advanced Magnetics, MA). Unbound cells were recovered and their phenotype was examined. Purity of the CD4^+ T cells was always greater than 92% as determined by FACScan.
The purified CD4^+ T cells were radioactively labeled with ^51 [Cr](New England Nuclear) in RPMI +20% FCS for 2 h and washed. The cells were counted and seeded (0.2×10^5 cells) on the precoated microtiter wells in the presence or the absence of the various inhibitors. Coating was made either with FN, the 120 kD cell-attachment fragment of FN or with control adhesive protein laminin (LN). The inhibitors were various surrogates according to the invention, other test molecules or mAb. After 30 min incubation (in […] CO2 -- humidified incubator) the T cells were activated by 10 ng/ml phorbol myristate acetate (PMA) and the percent of T cells attached to the protein substrates was measured. Unbound cells were washed away after 20-30 min, the bound cells were lysed and their radioactivity was measured using radioactive counter. The amount of the radioactivity of the cell lysates represent the matrix-adherent cells and percent binding was calculated in comparison to the total radioactivity added to the wells. Activated T cell adhesion to control wells or to wells coated with BSA was always 2-5%; the level of adhesion of the non-activated T cells was always below 5%. Where indicated, 1/200 diluted mAb anti-CD29 (anti-β1 mAb Serotec, GB), or 1/400 diluted anti-VLA5 (the β1α5 FN-integrin receptor) mAb (Telios Pharm. Inc. San Diego), or 0.2 mM of RGD, GRGDSPK or GRGESP peptides (Sigma) were used. The tested non-peptidic surrogates, 0.2 mM in PBS, were used to pretreat the T cells for 15 min before seeding the cells *, P<0.05. The results shown in Tables 1A, 1B and 1C represent data obtained from several experiments that produced essentially similar results.
The four RGD surrogates, AC-4.

[3] = system: tumor cell-induced metastases; assay: Inhibition of tumor cell-induced metastases in C57BL/6 mice; type: in vivo; conditions: i.v. daily, 25μg of SF-6,5 per mouse, after induction of metastasis
[4] = biological target: T1, platelet GPIIb-IIIa receptor (Homo sapiens, UniProt P05106+P08514); assay: Inhibition of ADP-induced platelet aggregation (platelet rich plasma); type: cell-based; conditions: for Inhibition of platelet aggregation, dose dependence, in words: FIG. 3; for Inhibition of platelet aggregation at fixed concentration, in words: FIG. 4, fixed sub-saturating 0.5 mM / 10μg/ml, 4 experiments
T1 construct: Platelet concentrates were prepared from human whole blood; endogenous in cells; host or cells: human platelets in platelet rich plasma
Procedure: To investigate the inhibitory role of the RGD analogues on adhesion, the platelet GPIIb-IIIa receptor which mediates platelet aggregation upon activation was used as a model.
Platelet concentrates were prepared from human whole blood in 10% adenine-citrate-dextrose in Fenwall bags (Baxter Travenol, Israel) followed by standard AABB protocol. Platelet rich plasma was prepared by centrifugation (2500 rpm for 5 min). Samples of platelets were counted in a Minos AST Cell Counter (Levoiselle, France). Cell aggregation was induced by […] and monitored at […] in a 4-channel Aggregometer (Bio-Data, Hatboro, Pa.). To evaluate the effect of the various RGD peptides and the peptide analogues, the platelet rich plasma was pre-incubated with the various inhibitors for 10 min at 37° C. with 10μsolutions followed by the induction of aggregation.
To examine the specificity of the inhibitory effect of the RGD-analogues on platelet aggregation, the cells were treated with various peptidic (RGD and GRGDSP) and non-peptidic (SF-6,6, SF-6,5 and AC-15) RGD analogues used at a fixed sub-saturating concentration of 0.5 mM.
An in vitro assay as described in Example 17 was carried out with the compound NS-11 to examine its ability to interfere with platelet aggregation, and compared it to the SF-6,5 surrogate.
Platelet rich plasma (PRP) was prepared from acid/citrate/dextrose anti-coagulated fresh human blood by differential centrifugation. Platelet aggregation was induced by […] and monitored at 695 nm by a 4-channel Aggregometer (Bio-Data, PA). To evaluate the effect of the RGDS peptide and the NS-8, NS-11 and NS-15 analogs, the PRP was preincubated with the inhibitors for 10 minutes at 37° C., prior to the induction of aggregation. […] In fact, 50% inhibition of platelet aggregation was achieved using a 30-fold lower concentration of NS-11 than that of RGDS.

[5] = system: DTH response to OX; assay: Inhibition of DTH response to OX in mice (ear swelling); type: in vivo, BALB/c mice; design: % inhibition of DTH response: concentration or dose not given beside the values; conditions: I.V.; for Δ Ear swelling: ± SD, positive control 21 ± 2
Procedure: To examine the regulatory role of SF-6,5 on T cell immunity and lymphocyte migration in vivo, a delayed-type hypersensitivity (DTH) reaction experiment was performed in which groups of BALB/c mice (6 mice per group) were sensitized on the shaved abdomen with the skin allergen 4-ethoxymethylene-2-phenyl oxazolone (OX) (10 μl of 3% OX in acetone/olive oil) and challenged again 5 days later by applying OX to their ears. The increment in ear swelling was recorded 24 hours later as a measure of DTH. The individual measuring of ear swelling was blinded to the identity of the groups of mice. GRGDS, RGD surrogate compound SF-6,5 and RGE surrogate compound SF-6,6 were administrated I.V. in 200μl PBS into the tail vein on the indicated days. Control groups of mice were treated identically with PBS.
These findings indicate that modulation of cell-mediated immune reactions in vivo may be achieved by relatively low doses of non-peptidic RGD analogue, most probably by means of interfering with lymphocyte migration.

[6] = injected on days 1 to 6, * P<0.01

Molecule | Stability to trypsin [1] | % inhibition of adhesion of activated CD4^+ T cell to LN [2] | % Adhesion of activated CD4^+ T cell to LN [2] | Inhibition of tumor cell-induced metastases [3] | inhibition at 100 µM ([4]; 0.1 mM, ADP-induced, read-out: Percent inhibition of aggregation) | inhibition at 300 µM ([4]; 0.3 mM, ADP-induced, read-out: Percent inhibition of aggregation) | Inhibition of platelet aggregation, dose dependence, in words [4] | IC50 ([4]; FIG. 3, ADP-induced) | Inhibition of platelet aggregation at fixed concentration, in words [4] | Inhibition of platelet aggregation, in words ([4]; Table 3) | Inhibition of DTH response, in words [5] | % inhibition of DTH response ([5]; injected on day 1) | Δ Ear swelling ([5]; injected on day 1) | % inhibition of DTH response ([5]; injected on days 1, 3) | % inhibition of DTH response ([5]; injected on days 1, 3, 5) | Δ Ear swelling ([5]; injected on days 1, 3, 5, * P<0.01) | Δ Ear swelling ([5]; injected on days 1, 3) | % inhibition of DTH response ([5]; injected on days 1 to 6) | Δ Ear swelling [5, 6] | T cell adhesion to LN, in words ([2]; 0.2 mM)
N=C(N)NCCCCCC(=O)NCCCCC(=O)O [SF-6,5, 6-aza-7-oxo-12-quanidino-dodecanoic acid] | intact after 60 min; also recorded: completely resistant to trypsin-induced hydrolysis | 0% | 55 ± 6% | inhibition of tumor cell-induced metastases | 25% | 55% | found to inhibit the aggregation of platelet rich plasma in a dose-dependent fashion | 300 µM | even higher than that of the GRGDSPK peptide | mild, though significant effect on aggregation | inhibited the DTH response best when the mice were injected for 6 days; also recorded: better inhibitor of the DTH response than the GRGDS peptide | 20% | 16 ± 3 × 10^-2 mm | 34% | 62% | 8 ± 2 × 10^-2 mm | 13 ± 2 × 10^-2 mm | 95% | 2 ± 1 × 10^-2 mm | –
N=C(N)NCCCCCC(=O)NCCCCCC(=O)O [SF-6,6] | – | 0% | 52 ± 6% | failed to inhibit metastases | – | – | but not SF-6,6, was found to inhibit the aggregation of platelet rich plasma | – | very limited inhibitory effect on platelet aggregation | – | – | – | – | – | – | – | – | None | 23 ± 4 × 10^-2 mm | did not inhibit T cell adhesion to both FN and LN
GRGDSPK [RGD peptide (Sigma)] | – | 0% | 53 ± 4% | – | – | – | – | – | marked inhibitory effect on platelet aggregation | – | – | – | – | – | – | – | – | 20% | 17 ± 3 × 10^-2 mm | –
